Results on 1 compound are retold here after patent US8338426B2, “Piperazinyl derivatives useful as modulators of the neuropeptide Y2 receptor” (Janssen Pharmaceutica NV, priority 2007, dated 2012).

For assay [1], the target named is T1, human Y2 receptor (Homo sapiens, UniProt P49146).
T1 construct: KAN-Ts endogenously expressing Y2 receptors were used; endogenous in cells; host or cells: KAN-Ts cells
T1 sequence (P49146 1-381): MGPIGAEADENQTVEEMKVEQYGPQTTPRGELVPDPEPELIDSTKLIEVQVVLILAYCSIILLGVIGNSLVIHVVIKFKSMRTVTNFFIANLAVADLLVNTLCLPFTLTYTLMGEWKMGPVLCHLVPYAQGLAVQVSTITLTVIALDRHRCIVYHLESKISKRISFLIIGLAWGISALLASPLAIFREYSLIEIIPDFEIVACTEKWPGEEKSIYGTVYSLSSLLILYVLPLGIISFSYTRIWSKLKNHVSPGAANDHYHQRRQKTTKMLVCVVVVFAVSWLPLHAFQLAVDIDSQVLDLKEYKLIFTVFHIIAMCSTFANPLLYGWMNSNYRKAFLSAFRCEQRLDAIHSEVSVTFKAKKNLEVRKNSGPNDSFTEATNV
In words: Neuropeptide Y2 radioligand binding assay, [125I]PYY, KAN-Ts cells. The note with it: KANT-S cells, mean ± S.E.M., read-out: hY2 pKi (converted). On the procedure:
Radioligand binding assays for the human and rat/mouse Y2 receptor were performed as described in Bonaventure, P., D. Nepomuceno, C. Mazur, B. Lord, D. A. Rudolph, J. A. Jablonowski, N. I. Carruthers and T. W. Lovenberg, J Pharmacol Exp Ther. 2004, 308, 1130.
KAN-Ts endogenously expressing Y2 receptors were used, for the rat and mouse Y2 receptor, membranes from rat or mouse hippocampus were prepared. Membranes were incubated with [^125I]PYY (80 pM) in the presence or absence of test compound for 1 h at rt. The reaction was stopped by filtration through GF/C filter plates pre-soaked in 0.3% polyethylenimine and subsequently washed with Tris-HCl, 50 mM, 5 mM EDTA buffer. Plates were dried for 1 h in a 55° C. oven, scintillation fluid was added and the radioactivity was counted in a Packard TopCount. Specific binding to the NPY receptor subtypes was determined by radioactivity that was bound in the presence of 1 μM NPY.
Apparent Ki values were calculated as K=IC50/(1+C/KD), where C is concentration of the radioligand and pKi=−log Ki. Data presented below are expressed as mean±S.E.M.

Assay [2] has as its target T1, human Y2 receptor. In words: [35S]GTPγS binding assay in KAN-Ts cells. It counts as biochemical. On the procedure: [^35S] GTPγS binding assay in KAN-Ts cells was performed as described in Bonaventure, P., D. Nepomuceno, C. Mazur, B. Lord, D. A. Rudolph, J. A. Jablonowski, N. I. Carruthers and T. W. Lovenberg, J Pharmacol Exp Ther. 2004, 308, 1130.
Assay mixtures (150 were preincubated with compounds for 30 minutes at ambient temperature. Then, 50 μl of [^35S]GTPγS in assay buffer was added to a final concentration of 200 pM and the assay mixtures were incubated for 1 hour at ambient temperature. Reactions were terminated by rapid filtration thought GF/C filters. Filters were washed twice with ice cold 50 mM Tris-HCl, pH 7.4 containing 10 mM MgCl2. Basal [^35S]GTPγS was measured in the absence of compounds. In initial experiments, nonspecific binding was measured in the presence of 100 μM GTPgS. This nonspecific binding never exceeded 10% of basal binding and was thus not subtracted from experimental data. Stimulation of [^35S]GTPγS was determined as percentage over basal and was calculated as one hundred times the difference between stimulated and basal binding (in cpm). […] Data are expressed as mean±S.E.M.
The antagonistic properties of the compound of formula (A) were evaluated in a [^35S]GTPγS binding assay in KAN-Ts cells endogenously expressing human Y2 receptors. […]

For a further assay, the target named is T2, NPY Y2 receptor (Homo sapiens, UniProt P49146).
T2 sequence (P49146 1-381): T1 sequence (P49146 1-381)
Description: CEREP binding panel, NPY Y2. On the procedure: (§1) The selectivity of the compound of formula (A) was further evaluated in a large variety of ion-channels, transporters and receptor-binding assays including the Y1 receptor subtype. These assays were performed by CEREP (Celles L'Evescault, France; www.cere.com<http//www.cerea.com>). Selectivity vs the Y5 receptor subtype was evaluated as described in Bonaventure, P., D. Nepomuceno, C. Mazur, B. Lord, D. A. Rudolph, J. A. Jablonowski, N. I. Carruthers and T. W. Lovenberg, J Pharmacol Exp Ther. 2004, 308, 1130.
(§2) The compound of formula (A) was assayed by binding in a panel of 50 receptors, ion channels and transporters assays (CEREP) including adenosine (A1,A2A,A3), adrenergic (α1, α2, β1), angiotensin (AT1), dopamine (D1, D2), bradykinin (B2), cholecystokinin (CCKA), galanin (GAL2), melatonin ML1), muscarinic (M1, M2, M3), neurotensin (NTS), neurokinin (NK2, NK3), NPY (Y1, Y2) opiate (m, k, d), serotonin (5-HT1A, 5-HT1B, 5-HT2A, 5-HT3, 5-HT5A, 5-HT6, 5-HT7), somatostatin, vasopressin (V1a), norepinephrine transporter, dopamine transporter and ion channels (sodium, calcium, potassium and chloride).

A further assay addresses T3, NPY Y1 receptor (Homo sapiens, UniProt P25929).
T3 construct: CEREP
T3 sequence (P25929 1-384): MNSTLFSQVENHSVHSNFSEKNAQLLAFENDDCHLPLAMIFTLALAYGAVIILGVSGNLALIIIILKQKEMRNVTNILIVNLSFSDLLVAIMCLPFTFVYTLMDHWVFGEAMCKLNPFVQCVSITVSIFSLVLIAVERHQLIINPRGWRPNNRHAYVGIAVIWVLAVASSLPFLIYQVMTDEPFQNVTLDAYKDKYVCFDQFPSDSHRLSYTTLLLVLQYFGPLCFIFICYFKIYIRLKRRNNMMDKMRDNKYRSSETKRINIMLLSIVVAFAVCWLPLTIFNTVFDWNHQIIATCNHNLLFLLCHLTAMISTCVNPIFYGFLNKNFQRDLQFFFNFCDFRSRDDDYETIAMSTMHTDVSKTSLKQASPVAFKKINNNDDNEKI
Description: CEREP binding panel, NPY Y1. On the procedure: as §1, §2

As for `CCN(CC)C(=O)C(c1ccccc1)N1CCN(c2ccc(NC(=O)c3ccccc3-c3cccnc3)cc2F)CC1` (racemic) [Cmpd (A), N-{4-[4-(Diethylcarbamoyl-phenyl-methyl)-piperazin-1-yl]-3-fluoro-phenyl}-2-pyridin-3-yl-benzamide], the Ki on human Y2 receptor [1] was 5.5 nM. Further, on human Y2 receptor [2] (read-out: hY2 pIC50corr (converted)), the IC50 was 0.0501 nM. For the same compound, the “effect of compound by itself on [35S]GTPγS binding” value at human Y2 receptor [2] (up to 10 μM, no PYY) is “did not affect”. Moreover, the inhibition at 1 µM stood at 100% on NPY Y2 receptor and 10% on NPY Y1 receptor.

What is called inhibition is the percentage by which the read-out fell short of the control. A lower inhibition goes with little suppression.
